For this data set the following is noted: Liquid, Closed cell (Static) method.

± gives the expanded uncertainty stated by the source.

`C=C(F)C(F)(F)F` [2,3,3,3-tetrafluoro-1-propene]: the vapor or sublimation pressure – broadly, the equilibrium pressure above the liquid or solid – is 437.9 ± 1.2 kPa (283.15 K); 591.5 ± 1.3 kPa (293.15 K); 782.9 ± 1.5 kPa (303.15 K); 1018.2 ± 1.8 kPa (313.15 K); 1302.4 ± 2.1 kPa (323.15 K).
With `CC(C)C` [2-methylpropane], the “vapor or sublimation pressure” value by setting is: (283.15 K) 220.9 ± 1.1 kPa; (293.15 K) 302.7 ± 1.1 kPa; (303.15 K) 404.4 ± 1.2 kPa; (313.15 K) 531.3 ± 1.3 kPa; (323.15 K) 684.2 ± 1.4 kPa.
For `FCC(F)(F)F` [1,1,1,2-tetrafluoroethane] the same measures were 415.5 ± 1.2 kPa, 572.4 ± 1.3 kPa, 768.9 ± 1.5 kPa, 1015.5 ± 1.8 kPa and 1317.2 ± 2.1 kPa.

(Values after the NIST ThermoML archive (doi:10.1016/j.fluid.2016.01.028).)
